pEC50, pIC50: −log10 of the molar value.
What was measured:
[1] = test system: HIV-infected ATH8 cells / human lymphoid cell lines; conditions: compared with corresponding saturated derivatives; cited from earlier work
HIV [2] = conditions: cited from earlier work
HIV [3] = test: microbe, parasite or virus in culture; type: cell-based; conditions: for pEC50: Human immunodeficiency virus 1, ATH-8, read-out: EID50 for inhibition of HIV cytopathogenicity
[4] = test system: vesicular stomatitis virus; test: microbe, parasite or virus in culture; type: cell-based; conditions: read-out: 50% effective inhibitory dose (EID50)
Coxsackie B4 virus = test: Antiviral activity against other viruses; type: cell-based; conditions: Enterovirus B, HeLa, Vero or PRK cell cultures, read-out: 50% effective inhibitory dose (EID50)
vaccinia virus = test: microbe, parasite or virus in culture; type: cell-based; conditions: Orthopoxvirus vaccinia, read-out: 50% effective inhibitory dose (EID50)
HIV [5] = test: Protection against HIV replication in MT-4 cells; type: cell-based; conditions: for inhibition at 0.1 µM: Human immunodeficiency virus 1, MT4, 0.1 μM
L1210/0 cells = test: Cytostatic effect (inhibition of cell proliferation); type: cell-based, murine; conditions: Mus musculus, read-out: IC50 (50%-inhibitory concentration, cell proliferation)
Experimental: (§1) The compounds ddeCyd and ddCyd were evaluated for their cytostatic effect against a series of murin and human cell lines. This was based upon measuring the inhibition of cell proliferation according to the procedures described by De Clercq et al. in Mol.Pharmacol. 19, 321-330 (1981).
(§2) The following cell lines were used: murine leukemia L1210 cells, designated L1210/0; murine mammary carcinoma FM3A cells; human B-lymphoblast Raji cells; human T-lymphoblast Molt/4F cells; human T4 -lymphocyte ATH8 cells and human T4 -lymphocyte MT-4 cells.

FM3A cells = test: as above; type: cell-based, murine; conditions: Mus musculus, read-out: IC50 (50%-inhibitory concentration, cell proliferation)
Experimental: as §1, §2

[6] = test system: herpes simplex virus type 1; test: Antiviral activity against other viruses; type: cell-based; conditions: Human alphaherpesvirus 1, HeLa, Vero or PRK cell cultures, read-out: 50% effective inhibitory dose (EID50)
polio virus type 1 = test: organism not typed; type: cell-based; conditions: read-out: 50% effective inhibitory dose (EID50)
reovirus type 1 = test: Antiviral activity against other viruses; type: cell-based; conditions: Mammalian orthoreovirus 1, HeLa, Vero or PRK cell cultures, read-out: 50% effective inhibitory dose (EID50)
HIV [7] = test: microbe, parasite or virus in culture; type: cell-based
HIV [8] = test: microbe, parasite or virus in culture; type: cell-based; conditions: Human immunodeficiency virus 1, MT4, read-out: % Inhibition of viral antigen expression
[9] = test system: herpes simplex virus type 2; test: Antiviral activity against other viruses; type: cell-based; conditions: Human alphaherpesvirus 2, HeLa, Vero or PRK cell cultures, read-out: 50% effective inhibitory dose (EID50)
ATH8 cells = test: Cytostatic effect (inhibition of cell proliferation); type: cell-based; conditions: Homo sapiens, ATH-8, read-out: IC50 (50%-inhibitory concentration, cell proliferation)
Experimental: as §1, §2

Raji cells = test: as above; type: cell-based; conditions: Homo sapiens, read-out: IC50 (50%-inhibitory concentration, cell proliferation)
Experimental: as §1, §2

Molt/4F cells = test: as above; type: cell-based; conditions: Homo sapiens, read-out: IC50 (50%-inhibitory concentration, cell proliferation)
Experimental: as §1, §2

MT-4 cells = test: as above; type: cell-based; conditions: Homo sapiens, MT4, read-out: IC50 (50%-inhibitory concentration, cell proliferation)
Experimental: as §1, §2

[10] = test system: DNA viruses and RNA viruses; test: Antiviral activity against other viruses, overall statement; type: cell-based; conditions: in words
Sindbis virus = test: Antiviral activity against other viruses; type: cell-based; conditions: HeLa, Vero or PRK cell cultures, read-out: 50% effective inhibitory dose (EID50)
[11] = test system: parainfluenza virus type 3; test: Antiviral activity against other viruses; type: cell-based; conditions: Human respirovirus 3, HeLa, Vero or PRK cell cultures, read-out: 50% effective inhibitory dose (EID50)

Structure (SMILES)	protection of HIV-infected ATH8 cells and/or cytostatic activity against human lymphoid cell lines [1]	pEC50 (HIV [3])	pEC50 [4]	pEC50 (Coxsackie B4 virus)	pEC50 (vaccinia virus)	inhibition at 0.1 µM (HIV [5]) [%]	pIC50 (L1210/0 cells)	pIC50 (FM3A cells)	pEC50 [6]	pEC50 (polio virus type 1)	pEC50 (reovirus type 1)	antiviral potency upon prolonged exposure (HIV [7])	inhibition at 0.1 µM (HIV [8]) [%]	inhibition at 0.5 µM (HIV [8]) [%]	inhibition at 2 µM (HIV [8]) [%]	inhibition at 5 µM (HIV [8]) [%]	inhibition at 20 µM (HIV [8]) [%]	pEC50 [9]	pIC50 (ATH8 cells)	pIC50 (Raji cells)	other results
Cc1cn([C@H]2C=C[C@@H](CO)O2)c(=O)[nH]c1=O [2',3'-unsaturated 2',3'-dideoxythymidine]	significantly less protective against HIV-infected ATH8 cells and/or considerably more cytostatic against human lymphoid cell lines																				
Cc1cn([C@H]2C[C@H](N=[N+]=[N-])[C@@H](CO)O2)c(=O)[nH]c1=O [azidothymidine, 3'-azido-2',2'-dideoxythymidine]																					inhibition of HIV replication (HIV [2]; lymphocyte cultures): potent inhibitor of HIV replication
Nc1ncnc2c1ncn2[C@H]1C=C[C@@H](CO)O1 [2',3'-unsaturated 2',3'-dideoxyadenosine]	significantly less protective against HIV-infected ATH8 cells and/or considerably more cytostatic against human lymphoid cell lines																				
Nc1ccn([C@H]2C=C[C@@H](CO)O2)c(=O)n1 [ddeCyd, 2',3'-didehydro-2'-3'-dideoxycytidine]		6.52 to 7.00	< 4.00	< 4.00	< 4.00	28	3.71	2.94	< 4.00	< 4.00	< 4.00	decrease in antiviral potency	20	85	98	98	96	< 4.00	4.52	4.89	effectiveness in inhibiting cytopathogenicity and antigen expression of HIV (HIV [3]; ATH 8 and MT-4 cells, compared with 2',3'-dideoxycytidine): almost as effective as 2',3'-dideoxycytidine; fold by which HIV-inhibiting concentrations are below any toxicity for the host cells (HIV [3]; T-cells): at least 100 fold; inhibition of human immunodeficiency virus in cell cultures (HIV [3]; in words): potent and selective inhibitor of human immunodeficiency virus in cell cultures; inhibition at 0.5 µM (HIV [5]; Human immunodeficiency virus 1, MT4, 0.5 μM): 91%; protection of cells against destruction by the virus (HIV [7]): almost complete protection; protective effect at a longer time interval (HIV [7]; 10 days (vs 7 days), ATH8 cells): somewhat lower; inhibition at 0.1 µM (HIV [7]; Human immunodeficiency virus 1, ATH-8, 168 h, read-out: protection of cells against destruction by the virus): ~40%; EC (optimum protection) (HIV [7]; Human immunodeficiency virus 1, ATH-8, 240 h, 10 days, ATH8 cells, read-out: concentration for optimum protection): ~2 µM; inhibition at 0.02 µM (HIV [8]; 0.02 μM): 8%; pIC50 (Molt/4F cells): 4.70; pIC50 (MT-4 cells): 4.82; antiviral effect against other (non-oncogenic RNA and DNA) viruses [10]: neither ddeCyd nor ddCyd demonstrated any significant antiviral effect; antiviral effect against other (non-oncogenic RNA and DNA) viruses ([10]; listed as 2',3'-dideoxycytidinene): not show any inhibitory effect; pEC50 (Sindbis virus): < 4.00; pEC50 [11]: < 4.00
Nc1ccn([C@H]2CC[C@@H](CO)O2)c(=O)n1 [ddCyd, 2',3'-dideoxycytidine, reference compound]		6.52 to 7.00	< 4.00	< 4.00	< 4.00	75	3.49	< 2.63	< 4.00	< 4.00	< 4.00	without decrease upon prolonged exposure	70	96	97	97	96	< 4.00	4.46	4.92	protection of MT-4 cells (HIV [5]; 0.5 μM, in words): completely protected; concentration effecting complete antiviral protection (HIV [2]; in vitro): 0.5 to 1.0 µM; protection of ATH8 cells (HIV [7]; 0.5 μM, ATH8 cells, no decrease upon prolonged exposure): completely protected; inhibition at 0.1 µM (HIV [7]; Human immunodeficiency virus 1, ATH-8, 0.1 μM, ATH8 cells, no decrease upon prolonged exposure, read-out: protection against HIV replication in ATH8 cells): 75%; pIC50 (Molt/4F cells): 4.77; pIC50 (MT-4 cells): 4.46; antiviral effect against other (non-oncogenic RNA and DNA) viruses [10]: neither ddeCyd nor ddCyd demonstrated any significant antiviral effect; pEC50 (Sindbis virus): < 4.00; pEC50 [11]: < 4.00

From patent US5116822A, “Therapeutic application of dideoxycytidinene” (priority 1990, dated 1992)
